# Patent US20050234063A1, “Therapeutic agent for brain hemorrhage” (priority 2002, published 2005)
# Columns and labels:
# [1] = system: subarachnoid bleeding model animal; conditions: subarachnoid bleeding model animal injected with one's own blood; Non-patent Reference 6; cited from earlier work
# [2] = system: AMPA receptor; conditions: disclosed in Patent Reference 1 (WO 96/10023); cited from earlier work
# [3] = system: cerebral infarction models; conditions: various cerebral infarction models; reported; cited from earlier work
# [4] = system: ischemic reperfusion model; conditions: Non-patent Reference 5; cited from earlier work
# [5] = disclosed in Patent Reference 1 (WO 96/10023); cited from earlier work
# [6] = system: cerebral hemorrhage model; test: Neurological symptom score in collagenase-induced rat cerebral hemorrhage model; type: in vivo; conditions: 10 or 20 mg/kg/h; for neurological symptom score on the 2nd day after collagenase injection, versus physiological saline administration group / neurological symptom score on the 14th day after collagenase injection, versus physiological saline administration group: 24 h intravenous continuous injection started 30 min after collagenase, Steel test
# Procedure: A cerebral hemorrhage model was prepared by the following procedure by adding a partial modification to the method of Rosenberg et al. (Stroke, 21, 801-807, 1990). Each of male Sprague-Dawley rats (240 to 330 g in body weight, Charles River Japan) was subjected to continuous anesthesia with 1% halothane under spontaneous respiration and fixed on a stereotaxic instrument. The skull was exposed by carrying out median skin incision of the head of the animal, and a small bone window was opened on the skull using a dental drill (C730, MINIMO) at a position of 0.2 mm in the front side (A: +0.2 mm) and 3.0 mm in the left side (L: +3.0 mm) based on dBregma in accordance with the Paxinos's brain pictorial book (Paxinos G and Watson C, The rat brain in the stereotaxic coordinates (1986) Academic Press, New Yolk). An administration needle of 30G was inserted to a depth of 6.0 mm (H: −6.0 mm) from the skull and then pulled out 0.3 mm to ensure an administration space (central part of the striatum). A solution of collagenase (10 units/ml, type IV, Lot 99H8641, Sigma) was injected at a flow rate of 0.2 μl/min for 7 minutes (1.4 μl) using a micro-syringe pump (Neuroscience Syringe Pump 100, Muromachi). The administration needle was slowly pulled out after completion of the injection, scalp suture was carried out, and then the animal was revived by warming up under an incandescent lamp. It has been reported that a cerebral hemorrhage locally limited to the striatum is generated 0.5 to 4 hours after injection of collagenase in this rat cerebral hemorrhage model (Stroke, 27, 2312-2320, 1996).
# As the administration of medicament, zonampanel monohydrate (hereinafter, compound a) was used. After 30 minutes of the collagenase injection, intravenous injection of zonampanel was started via a canula indwelled in the common jugular vein. The compound a was dissolved in physiological saline at a concentration of 10 mg/5 ml or 20 mg/5 ml and then subjected to 24 hours of intravenous continuous injection under shading at a dose of 10 mg/5 ml/kg/h (compound a (10 mg/kg) administration group) or 20 mg/5 ml/kg/h (compound a (20 mg/kg) administration group). In the control group, physiological saline was subjected to 24 hours of intravenous continuous injection at a dose of 5 ml/kg/h (physiological saline administration group). The number of animals in respective groups was 6 animals in the compound a (10 mg/kg) administration group, 9 animals in the compound a (20 mg/kg) administration group, and 9 animals in the physiological saline administration group.
# Staring after 30 minutes of the injection of collagenase into the striatum, the compound a was subjected to 24 hours of intravenous continuous injection at a dose of 10 mg/kg/h (compound a (10 mg/kg) administration group, 6 cases) or 20 mg/kg/h (compound a (20 mg/kg) administration group, 9 cases), and a neurological symptom of each animal was observed before the injection of collagenase and on the 2nd and 14th days after the collagenase injection. Physiological saline was administered to the control group (physiological saline administration group, 9 cases).
# Scoring criteria of the neurological symptom are as follows. This was scored by 5 steps (O to 4) based on the behavior of each animal when the waist part of the animal was pushed toward the front side.
# Score 1: Turning right is predominant but sometimes turns left.
# Score 0: Normal, no left-right turning inclination. […]
SMILES,effect on vascular permeability acceleration [1],AMPA receptor binding activity [2],effect on progress of infarction foci [3],time after drug administration from which the neurological symptoms improving action is observed [4] [hours],water-solubility [5],"neurological symptom score on the 2nd day after collagenase injection, versus physiological saline administration group ([6]; listed as zonampanel, monohydrate)","neurological symptom score on the 2nd day after collagenase injection, versus physiological saline administration group ([6]; monohydrate)","neurological symptom score on the 14th day after collagenase injection, versus physiological saline administration group ([6]; p<0.05, listed as zonampanel, monohydrate)","neurological symptom score on the 14th day after collagenase injection, versus physiological saline administration group ([6]; p<0.05, monohydrate)","change of neurological symptom score as the days elapsed, in comparison with the control ([6]; 24 h intravenous continuous injection, days 0 to 14 (FIG. 1))"
CC1=NN=C(c2ccc(N)cc2)c2cc3c(cc2C1)OCO3 [GYK152466],inhibits vascular permeability acceleration,,,,,,,,,
"O.O=C(O)Cn1c(=O)c(=O)[nH]c2cc([N+](=O)[O-])c(-n3ccnc3)cc21 [compound a, [7-(1H-imidazol-1-yl)-6-nitro-2,3-dioxo-3,4-dihydroquinoxalin-1(2H)-yl]acetic acid monohydrate]",,potent and selective,inhibit progress of infarction foci,≥ 24,high,does not show significant effect,almost the same,significant improving effect,significantly light,improving tendency
